{"source": "ChEMBL document CHEMBL5506004", "about": "“Optimizing drug-like properties of selective butyrylcholinesterase inhibitors for cognitive improvement: Enhancing aqueous solubility by disrupting molecular plane” (Eur J Med Chem, 2024)", "key": {"Cholinesterase [1]": {"biological_target": "Cholinesterase (Equus caballus, UniProt P81908)", "sequence (P81908 whole entry)": "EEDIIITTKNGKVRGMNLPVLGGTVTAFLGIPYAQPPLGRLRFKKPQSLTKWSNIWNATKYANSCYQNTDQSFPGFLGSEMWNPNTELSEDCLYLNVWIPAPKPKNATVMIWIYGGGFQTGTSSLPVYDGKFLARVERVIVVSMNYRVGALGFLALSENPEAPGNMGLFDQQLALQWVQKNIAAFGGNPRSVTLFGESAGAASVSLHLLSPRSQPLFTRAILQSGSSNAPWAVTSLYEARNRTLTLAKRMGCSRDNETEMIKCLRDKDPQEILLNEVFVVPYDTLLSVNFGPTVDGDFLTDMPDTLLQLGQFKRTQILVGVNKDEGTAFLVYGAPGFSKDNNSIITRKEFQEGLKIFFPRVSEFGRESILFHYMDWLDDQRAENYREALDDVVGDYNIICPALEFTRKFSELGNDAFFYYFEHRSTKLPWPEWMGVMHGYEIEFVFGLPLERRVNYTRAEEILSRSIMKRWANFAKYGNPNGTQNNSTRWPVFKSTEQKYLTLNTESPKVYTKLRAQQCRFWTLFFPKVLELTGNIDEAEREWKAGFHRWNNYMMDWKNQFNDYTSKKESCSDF", "test": "Inhibition of horse serum BChE using BTC iodide as substrate preincubated for 5 mins followed by substrate addition measured after 2 mins by Ellman's method"}, "Cholinesterase [2]": {"biological_target": "T1, Cholinesterase (Homo sapiens, UniProt P06276)", "T1 sequence (P06276 whole entry)": "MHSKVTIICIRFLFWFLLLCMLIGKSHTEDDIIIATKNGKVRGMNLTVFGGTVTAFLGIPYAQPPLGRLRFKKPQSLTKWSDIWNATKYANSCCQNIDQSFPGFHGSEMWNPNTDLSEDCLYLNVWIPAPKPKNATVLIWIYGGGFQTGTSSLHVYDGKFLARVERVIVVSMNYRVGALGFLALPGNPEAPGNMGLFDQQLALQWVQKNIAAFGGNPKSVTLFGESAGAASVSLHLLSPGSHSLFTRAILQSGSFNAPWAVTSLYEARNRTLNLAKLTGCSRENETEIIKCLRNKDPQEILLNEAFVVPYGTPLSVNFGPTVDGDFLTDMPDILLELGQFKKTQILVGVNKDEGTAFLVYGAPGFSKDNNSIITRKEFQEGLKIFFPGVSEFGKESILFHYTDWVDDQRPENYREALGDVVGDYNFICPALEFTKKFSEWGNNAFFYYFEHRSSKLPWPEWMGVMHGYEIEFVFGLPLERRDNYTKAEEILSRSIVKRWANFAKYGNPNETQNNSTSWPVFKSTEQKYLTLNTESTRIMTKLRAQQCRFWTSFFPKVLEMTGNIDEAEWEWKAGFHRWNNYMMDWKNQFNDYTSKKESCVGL", "test": "Inhibition of human BChE using BTC iodide as substrate preincubated for 5 mins followed by substrate addition measured after 2 mins by Ellman's method"}, "[3]": {"test": "Solubility of compound in FaSSIF incubated for 24 hrs by HPLC analysis", "format": "ADME"}, "Cholinesterase [4]": {"biological_target": "T1, Cholinesterase", "test": "Non-competitive inhibition of human BChE"}, "BV-2": {"system": "BV-2", "test": "Cytotoxicity against mouse BV-2 cells assessed as survival rate at 100 uM incubated for 24 hrs by MTT assay relative to control", "format": "functional", "conditions": "read-out: Survival"}, "HT-22 [5]": {"system": "HT-22", "test": "Cytotoxicity against mouse HT-22 cells assessed as survival rate at 100 uM incubated for 24 hrs by MTT assay relative to control", "format": "functional", "conditions": "read-out: Survival"}, "PC-12 [6]": {"system": "PC-12", "test": "Cytotoxicity against rat PC12 cells assessed as survival rate at 100 uM incubated for 24 hrs by MTT assay relative to control", "format": "functional", "conditions": "read-out: Survival"}, "[7]": {"test": "Cytotoxicity against human L02 cells assessed as survival rate at 100 uM incubated for 24 hrs by MTT assay relative to control", "format": "toxicity, cell-based", "conditions": "read-out: Survival"}, "SH-SY5Y [8]": {"system": "SH-SY5Y", "test": "Cytotoxicity against human SH-SY5Y cells assessed as survival rate incubated for 24 hrs by MTT assay", "format": "functional, cell-based"}, "[9]": {"test": "Acute toxicity in ICR mouse assessed as animal death at 1 g/kg, IG", "conditions": "in vivo, po, 1000 mg/kg"}, "[10]": {"test": "Acute toxicity in ICR mouse assessed as animal growth at 1 g/kg, IG", "conditions": "in vivo, po, 1000 mg/kg"}, "PC-12 [11]": {"system": "PC-12", "test": "Neuroprotective activity in rat PC12 cells assessed as cell viability pretreated for 2 hrs followed by H2O2 addition measured after 24 hrs by MTT assay", "format": "functional, cell-based", "conditions": "time 26.0 hrs"}, "SH-SY5Y [12]": {"system": "SH-SY5Y", "test": "Neuroprotective activity against amyloid beta (1 to 42)-induced neuronal death in human SH-SY5Y cells assessed as cell viability pretreated for 1 hr followed by amyloid beta (1 to 42) addition measured after 24 hrs by MTT assay", "format": "functional, cell-based", "conditions": "dose 1-10 µM, time 25.0 hrs"}, "HT-22 [13]": {"system": "HT-22", "test": "Neuroprotective activity against glutamate-induced excitotoxicity in mouse HT-22 cells assessed as cell viability at 1 to 10 uM pretreated for 1 hr followed by glutamate addition measured after 24 hrs by MTT assay", "format": "functional, cell-based", "conditions": "dose 1-10 µM, time 25.0 hrs"}, "[14]": {"test": "Metabolic stability in human liver microsomes assessed as compound metabolism at 2 uM measured for 60 mins by LC-MS/MS analysis", "format": "ADME, Microsome", "conditions": "read-out: Drug metabolism"}, "hERG (KCNH2)": {"biological_target": "hERG (KCNH2) (Homo sapiens, UniProt Q12809)", "sequence (Q12809 whole entry)": "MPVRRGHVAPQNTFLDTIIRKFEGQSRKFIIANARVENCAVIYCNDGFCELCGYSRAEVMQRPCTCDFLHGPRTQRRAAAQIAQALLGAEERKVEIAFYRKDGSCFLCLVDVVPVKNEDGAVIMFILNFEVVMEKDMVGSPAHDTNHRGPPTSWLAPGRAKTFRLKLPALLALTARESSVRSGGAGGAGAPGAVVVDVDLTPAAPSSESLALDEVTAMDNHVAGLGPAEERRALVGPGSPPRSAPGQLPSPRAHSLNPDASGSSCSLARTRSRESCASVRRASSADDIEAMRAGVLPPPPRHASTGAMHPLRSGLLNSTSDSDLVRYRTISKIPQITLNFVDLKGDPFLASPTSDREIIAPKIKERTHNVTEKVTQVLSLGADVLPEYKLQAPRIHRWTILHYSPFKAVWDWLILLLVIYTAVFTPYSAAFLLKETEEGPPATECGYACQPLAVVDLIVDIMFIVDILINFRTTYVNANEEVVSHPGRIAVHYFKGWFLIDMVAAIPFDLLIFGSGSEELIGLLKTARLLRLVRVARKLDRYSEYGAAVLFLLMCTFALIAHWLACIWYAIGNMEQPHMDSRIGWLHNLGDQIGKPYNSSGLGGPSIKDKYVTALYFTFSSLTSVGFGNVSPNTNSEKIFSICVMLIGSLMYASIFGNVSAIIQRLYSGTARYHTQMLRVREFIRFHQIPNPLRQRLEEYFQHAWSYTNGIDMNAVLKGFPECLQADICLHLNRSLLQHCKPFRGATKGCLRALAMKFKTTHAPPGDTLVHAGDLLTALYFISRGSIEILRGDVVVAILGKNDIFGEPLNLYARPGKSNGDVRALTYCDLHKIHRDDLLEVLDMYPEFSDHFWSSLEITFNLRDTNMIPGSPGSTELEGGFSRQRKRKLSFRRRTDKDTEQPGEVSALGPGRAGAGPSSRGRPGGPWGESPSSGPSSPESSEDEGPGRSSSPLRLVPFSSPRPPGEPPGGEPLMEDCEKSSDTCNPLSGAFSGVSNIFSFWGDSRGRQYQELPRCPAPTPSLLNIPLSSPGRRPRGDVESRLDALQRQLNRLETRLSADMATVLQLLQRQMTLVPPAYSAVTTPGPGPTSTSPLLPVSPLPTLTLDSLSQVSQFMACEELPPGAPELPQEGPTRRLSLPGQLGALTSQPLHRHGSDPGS", "test": "Inhibition of hERG at 10 uM by manual patch clamp assay relative to control", "format": "toxicity"}, "CYP2C9": {"biological_target": "CYP2C9 (Homo sapiens, UniProt P11712)", "sequence (P11712 whole entry)": "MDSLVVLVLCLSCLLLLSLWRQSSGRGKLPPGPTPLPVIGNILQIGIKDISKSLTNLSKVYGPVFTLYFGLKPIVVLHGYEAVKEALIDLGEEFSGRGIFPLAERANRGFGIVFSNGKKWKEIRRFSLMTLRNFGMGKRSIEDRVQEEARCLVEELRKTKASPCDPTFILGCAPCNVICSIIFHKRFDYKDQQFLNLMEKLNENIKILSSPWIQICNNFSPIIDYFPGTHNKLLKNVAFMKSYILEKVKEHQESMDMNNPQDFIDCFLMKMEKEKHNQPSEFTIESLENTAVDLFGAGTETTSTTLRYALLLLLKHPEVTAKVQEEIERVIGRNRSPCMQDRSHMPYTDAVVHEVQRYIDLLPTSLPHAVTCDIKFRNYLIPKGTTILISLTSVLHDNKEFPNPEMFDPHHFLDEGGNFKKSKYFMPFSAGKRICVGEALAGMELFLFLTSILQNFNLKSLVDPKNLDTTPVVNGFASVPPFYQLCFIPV", "test": "Inhibition of CYP2C9 in human liver microsomes at 10 uM in presence of NADPH-regenerating system by LC-MS/MS analysis relative to control", "format": "ADME, Microsome"}, "CYP2C19": {"biological_target": "CYP2C19 (Homo sapiens, UniProt P33261)", "sequence (P33261 whole entry)": "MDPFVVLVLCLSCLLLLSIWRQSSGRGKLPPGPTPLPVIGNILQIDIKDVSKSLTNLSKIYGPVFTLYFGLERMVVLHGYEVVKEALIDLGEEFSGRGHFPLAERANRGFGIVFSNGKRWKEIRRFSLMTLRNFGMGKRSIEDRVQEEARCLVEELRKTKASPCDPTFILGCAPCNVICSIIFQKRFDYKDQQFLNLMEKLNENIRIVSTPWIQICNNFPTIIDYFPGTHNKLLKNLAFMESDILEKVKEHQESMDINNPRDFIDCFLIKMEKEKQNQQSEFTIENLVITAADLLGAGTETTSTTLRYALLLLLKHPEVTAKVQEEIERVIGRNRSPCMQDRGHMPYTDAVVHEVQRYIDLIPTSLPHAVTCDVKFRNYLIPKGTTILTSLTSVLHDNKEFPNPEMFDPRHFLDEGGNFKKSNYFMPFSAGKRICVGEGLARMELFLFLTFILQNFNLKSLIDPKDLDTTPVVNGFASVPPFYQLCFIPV", "test": "Inhibition of CYP2C19 in human liver microsomes at 10 uM in presence of NADPH-regenerating system by LC-MS/MS analysis relative to control", "format": "ADME, Microsome"}, "Cytochrome P450 3A4/3A5": {"biological_target": "Cytochrome P450 3A4/3A5 (Homo sapiens, UniProt P08684+P20815)", "test": "Inhibition of CYP3A4/CYP3A5 in human liver microsomes at 10 uM in presence of NADPH-regenerating system by LC-MS/MS analysis", "format": "ADME, Microsome"}, "[15]": {"test": "AUC (0 to t) in Sprague-Dawley rat at 10 mg/kg, po measured for 1 to 1440 mins by LC-MS/MS analysis", "format": "ADME, organism-based", "conditions": "in vivo, time 1-1440 min"}, "[16]": {"test": "AUC (0 to infinity) in Sprague-Dawley rat at 10 mg/kg, po measured for 1 to 1440 mins by LC-MS/MS analysis", "format": "ADME, organism-based", "conditions": "in vivo, time 1-1440 min"}, "[17]": {"test": "MRT (infinity) in Sprague-Dawley rat at 10 mg/kg, po measured for 1 to 1440 mins by LC-MS/MS analysis", "format": "ADME, organism-based", "conditions": "in vivo, time 1-1440 min"}, "[18]": {"test": "Tmax in Sprague-Dawley rat at 10 mg/kg, po measured for 1 to 1440 mins by LC-MS/MS analysis", "format": "ADME, organism-based", "conditions": "in vivo, time 1-1440 min"}, "[19]": {"test": "Cmax in Sprague-Dawley rat at 10 mg/kg, po measured for 1 to 1440 mins by LC-MS/MS analysis", "format": "ADME, organism-based", "conditions": "Sprague-Dawley, in vivo, time 1-1440 min, read-out: Cmax"}, "[20]": {"test": "Oral bioavailability in Sprague-Dawley rat at 10 mg/kg measured for 1 to 1440 mins by LC-MS/MS analysis", "format": "ADME, organism-based", "conditions": "in vivo, time 1-1440 min"}, "[21]": {"test": "AUC (0 to t) in Sprague-Dawley rat at 10 mg/kg, iv measured for 1 to 1440 mins by LC-MS/MS analysis", "format": "ADME, organism-based", "conditions": "in vivo, time 1-1440 min"}, "[22]": {"test": "AUC (0 to infinity) in Sprague-Dawley rat at 10 mg/kg, iv measured for 1 to 1440 mins by LC-MS/MS analysis", "format": "ADME, organism-based", "conditions": "in vivo, time 1-1440 min"}, "[23]": {"test": "MRT (infinity) in Sprague-Dawley rat at 10 mg/kg, iv measured for 1 to 1440 mins by LC-MS/MS analysis", "format": "ADME, organism-based", "conditions": "in vivo, time 1-1440 min"}, "[24]": {"test": "Half life in Sprague-Dawley rat at 10 mg/kg, iv measured for 1 to 1440 mins by LC-MS/MS analysis", "format": "ADME, organism-based", "conditions": "in vivo, time 1-1440 min"}, "[25]": {"test": "Tmax in Sprague-Dawley rat at 10 mg/kg, iv measured for 1 to 1440 mins by LC-MS/MS analysis", "format": "ADME, organism-based", "conditions": "in vivo, time 1-1440 min"}, "[26]": {"test": "Cmax in Sprague-Dawley rat at 10 mg/kg, iv measured for 1 to 1440 mins by LC-MS/MS analysis", "format": "ADME, organism-based", "conditions": "in vivo, time 1-1440 min"}, "[27]": {"test": "Cmax in brain of ICR mouse at 10 mg/kg, po measured for 10 to 480 mins by spectroscopy", "format": "ADME, organism-based", "conditions": "time 10-480 min"}, "[28]": {"test": "AUC (0 to t) in brain of ICR mouse at 10 mg/kg, po measured for 10 to 480 mins by spectroscopy", "format": "ADME, organism-based", "conditions": "time 10-480 min"}, "[29]": {"test": "Cmax in plasma of ICR mouse at 10 mg/kg, po measured for 10 to 480 mins by spectroscopy", "format": "ADME, organism-based", "conditions": "time 10-480 min"}, "Mus musculus [30]": {"system": "Mus musculus", "test": "Cognitive enhancing effect in Amyloid beta (1 to 42)-treated ICR mouse assessed as shorter arrival time at 10 mg/kg, po administered daily measured after 7 to 12 days by Morris water maze test", "format": "functional, organism-based", "conditions": "time 7-12 day"}, "Mus musculus [31]": {"system": "Mus musculus", "test": "Cognitive enhancing effect in Amyloid beta (1 to 42)-treated ICR mouse assessed as spontaneous decision behaviour at 10 mg/kg, po administered daily measured after 13 days by Y-maze test", "format": "functional, organism-based", "conditions": "time 13.0 day"}, "[32]": {"biological_target": "Amyloid-beta precursor protein (Mus musculus) (UniProt P12023)", "sequence (P12023 whole entry)": "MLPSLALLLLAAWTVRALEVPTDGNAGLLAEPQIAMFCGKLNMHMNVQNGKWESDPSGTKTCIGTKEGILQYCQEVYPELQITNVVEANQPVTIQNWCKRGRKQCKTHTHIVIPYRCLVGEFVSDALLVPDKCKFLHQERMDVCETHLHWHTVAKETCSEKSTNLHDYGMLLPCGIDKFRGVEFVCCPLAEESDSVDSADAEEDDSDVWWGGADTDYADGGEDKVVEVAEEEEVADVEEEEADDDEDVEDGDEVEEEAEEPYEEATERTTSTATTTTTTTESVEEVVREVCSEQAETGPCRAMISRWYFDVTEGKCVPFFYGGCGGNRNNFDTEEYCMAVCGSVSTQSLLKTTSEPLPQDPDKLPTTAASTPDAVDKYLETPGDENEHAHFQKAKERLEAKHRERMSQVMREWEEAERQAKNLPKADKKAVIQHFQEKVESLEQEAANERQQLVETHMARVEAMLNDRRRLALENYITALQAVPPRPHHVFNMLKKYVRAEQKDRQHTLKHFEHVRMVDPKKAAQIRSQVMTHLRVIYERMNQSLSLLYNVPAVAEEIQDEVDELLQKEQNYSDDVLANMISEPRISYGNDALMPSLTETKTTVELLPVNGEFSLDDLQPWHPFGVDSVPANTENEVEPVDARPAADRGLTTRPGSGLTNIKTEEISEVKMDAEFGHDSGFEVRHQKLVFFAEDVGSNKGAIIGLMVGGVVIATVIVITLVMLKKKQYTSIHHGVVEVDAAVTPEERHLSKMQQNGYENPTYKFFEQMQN", "test": "In vivo inhibition of Amyloid beta (1 to 42) self-aggregation in brain of Amyloid beta (1 to 42)-treated ICR mouse at 10 mg/kg, po administered daily for 12 days", "format": "functional, organism-based", "conditions": "time 12.0 day"}, "Mus musculus [33]": {"system": "Mus musculus", "test": "Downregulation of Amyloid beta (1 to 42) level in brain of Amyloid beta (1 to 42)-treated ICR mouse at 10 mg/kg, po administered daily for 12 days", "format": "functional, organism-based", "conditions": "time 12.0 day"}}, "note": "Calls of active or inactive are those of the source. The rule behind the calls is not given here."}
{"compound": "Nc1nonc1-c1nc2ccccc2n1CC(=O)Nc1ccc(CCN2CCOCC2)cc1", "values": [{"measurement": "IC50", "setting": "Cholinesterase [1]", "value": 11.3, "unit": "nM"}, {"measurement": "IC50", "setting": "Cholinesterase [2]", "value": 48.1, "unit": "nM"}, {"measurement": "solubility at 24 h", "setting": "[3]", "value": 3.28, "unit": "mM"}, {"measurement": "inhibition", "setting": "Cholinesterase [4]", "value": "Active"}, {"measurement": "viability at 100 µM", "setting": "BV-2", "value": 66.5, "unit": "%"}, {"measurement": "viability at 100 µM", "setting": "HT-22 [5]", "value": 80.7, "unit": "%"}, {"measurement": "viability at 100 µM", "setting": "PC-12 [6]", "value": 75.5, "unit": "%"}, {"measurement": "viability at 24 h, 100 µM", "setting": "[7]", "value": 87.1, "unit": "%"}, {"measurement": "IC50", "setting": "SH-SY5Y [8]", "value": 89800, "unit": "nM"}, {"measurement": "Activity", "setting": "[9]", "value": "Non-Toxic"}, {"measurement": "Activity", "setting": "[10]", "value": "Non-Toxic"}, {"measurement": "Activity", "setting": "PC-12 [11]", "value": "Dose-Dependent Effect"}, {"measurement": "Activity", "setting": "SH-SY5Y [12]", "value": "Dose-Dependent Effect"}, {"measurement": "Activity", "setting": "HT-22 [13]", "value": "Active"}, {"measurement": "metabolised at 1 h, 2 µM", "setting": "[14]", "value": "< 15", "unit": "%"}, {"measurement": "inhibition at 10 µM", "setting": "hERG (KCNH2)", "value": 25.5, "unit": "%"}, {"measurement": "inhibition at 10 µM", "setting": "CYP2C9", "value": 10.9, "unit": "%"}, {"measurement": "inhibition at 10 µM", "setting": "CYP2C19", "value": 9.19, "unit": "%"}, {"measurement": "inhibition (INH)", "setting": "Cytochrome P450 3A4/3A5", "value": "Not Active"}, {"measurement": "AUC(0-t)", "setting": "[15]", "value": 1440, "unit": "ng·h/mL"}, {"measurement": "AUC(0-inf)", "setting": "[16]", "value": 1730, "unit": "ng·h/mL"}, {"measurement": "MRT inf", "setting": "[17]", "value": 9.67, "unit": "h"}, {"measurement": "Tmax", "setting": "[18]", "value": 0.389, "unit": "h"}, {"measurement": "Cmax", "setting": "[19]", "value": 1060, "unit": "ng/mL"}, {"measurement": "bioavailability", "setting": "[20]", "value": 48.2, "unit": "%"}, {"measurement": "AUC(0-t)", "setting": "[21]", "value": 3570, "unit": "ng·h/mL"}, {"measurement": "AUC(0-inf)", "setting": "[22]", "value": 3590, "unit": "ng·h/mL"}, {"measurement": "MRT inf", "setting": "[23]", "value": 2.57, "unit": "h"}, {"measurement": "half-life", "setting": "[24]", "value": 3.29, "unit": "h"}, {"measurement": "Tmax", "setting": "[25]", "value": 3, "unit": "min"}, {"measurement": "Cmax", "setting": "[26]", "value": 4610, "unit": "ng/mL"}, {"measurement": "Cmax", "setting": "[27]", "value": 209, "unit": "ng/mL"}, {"measurement": "AUC(0-t)", "setting": "[28]", "value": 268, "unit": "ng·h/mL"}, {"measurement": "Cmax", "setting": "[29]", "value": 1390, "unit": "ng/mL"}, {"measurement": "Activity", "setting": "Mus musculus [30]", "value": "Active"}, {"measurement": "Activity", "setting": "Mus musculus [31]", "value": "Active"}, {"measurement": "inhibition", "setting": "[32]", "value": "inactive"}, {"measurement": "Activity", "setting": "Mus musculus [33]", "value": "Active"}]}
